In test [1] the target is Dual specificity mitogen-activated protein kinase kinase 2 (Homo sapiens, UniProt P36507).
The target in test [2] is T1, Serine/threonine-protein kinase TAO1 (Homo sapiens, UniProt Q7L7X3).
T1 sequence (Q7L7X3 whole entry): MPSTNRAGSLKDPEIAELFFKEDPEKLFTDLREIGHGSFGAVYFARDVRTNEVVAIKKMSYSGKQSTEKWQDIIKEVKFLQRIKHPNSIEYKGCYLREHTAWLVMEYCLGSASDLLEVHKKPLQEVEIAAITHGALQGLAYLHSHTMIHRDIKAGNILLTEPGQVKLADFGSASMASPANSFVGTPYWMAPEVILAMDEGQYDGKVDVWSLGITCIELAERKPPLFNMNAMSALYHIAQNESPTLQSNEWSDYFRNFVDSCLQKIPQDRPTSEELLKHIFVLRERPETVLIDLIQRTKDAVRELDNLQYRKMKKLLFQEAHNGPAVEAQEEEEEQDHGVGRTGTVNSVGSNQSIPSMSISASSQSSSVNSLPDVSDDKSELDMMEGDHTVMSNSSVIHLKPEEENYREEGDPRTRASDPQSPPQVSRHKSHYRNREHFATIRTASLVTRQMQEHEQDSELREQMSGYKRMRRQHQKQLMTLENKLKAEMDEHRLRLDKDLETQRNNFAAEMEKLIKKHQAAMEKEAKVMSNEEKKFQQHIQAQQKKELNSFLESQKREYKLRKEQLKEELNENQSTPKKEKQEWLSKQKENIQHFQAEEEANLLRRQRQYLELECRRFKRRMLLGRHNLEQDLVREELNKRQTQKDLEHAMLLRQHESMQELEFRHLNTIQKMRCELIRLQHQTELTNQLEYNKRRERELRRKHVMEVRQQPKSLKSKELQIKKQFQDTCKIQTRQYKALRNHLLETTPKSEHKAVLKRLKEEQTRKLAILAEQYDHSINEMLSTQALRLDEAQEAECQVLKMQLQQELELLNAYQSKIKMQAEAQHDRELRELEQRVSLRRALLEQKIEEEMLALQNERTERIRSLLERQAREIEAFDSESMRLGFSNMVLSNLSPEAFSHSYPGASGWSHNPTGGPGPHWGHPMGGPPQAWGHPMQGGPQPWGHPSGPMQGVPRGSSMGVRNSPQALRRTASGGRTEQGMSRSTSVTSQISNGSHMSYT

Test [3] deals with Insulin receptor (Homo sapiens, UniProt P06213).
Chain of Insulin receptor (P06213 28-758 limits assumed): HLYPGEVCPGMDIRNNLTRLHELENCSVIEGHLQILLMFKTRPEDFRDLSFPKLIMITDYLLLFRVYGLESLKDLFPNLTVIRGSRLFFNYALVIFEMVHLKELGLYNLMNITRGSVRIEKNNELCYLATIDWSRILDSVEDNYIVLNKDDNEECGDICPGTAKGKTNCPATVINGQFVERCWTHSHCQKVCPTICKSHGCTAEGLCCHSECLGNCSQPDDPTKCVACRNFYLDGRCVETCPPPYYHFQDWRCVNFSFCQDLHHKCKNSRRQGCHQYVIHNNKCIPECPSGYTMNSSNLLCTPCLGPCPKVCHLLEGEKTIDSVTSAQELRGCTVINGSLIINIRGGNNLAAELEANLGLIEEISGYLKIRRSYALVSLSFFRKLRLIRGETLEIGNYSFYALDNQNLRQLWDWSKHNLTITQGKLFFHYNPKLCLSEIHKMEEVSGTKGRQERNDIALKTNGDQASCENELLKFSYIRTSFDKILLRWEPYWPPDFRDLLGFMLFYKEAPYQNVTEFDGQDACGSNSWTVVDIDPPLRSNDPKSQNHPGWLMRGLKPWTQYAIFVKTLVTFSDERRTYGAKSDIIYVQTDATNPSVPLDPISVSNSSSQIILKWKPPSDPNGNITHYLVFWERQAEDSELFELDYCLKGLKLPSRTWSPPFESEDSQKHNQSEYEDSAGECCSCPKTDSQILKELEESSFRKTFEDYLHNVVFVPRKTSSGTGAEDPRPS
Chain of Insulin receptor (P06213 763-1382 limits assumed): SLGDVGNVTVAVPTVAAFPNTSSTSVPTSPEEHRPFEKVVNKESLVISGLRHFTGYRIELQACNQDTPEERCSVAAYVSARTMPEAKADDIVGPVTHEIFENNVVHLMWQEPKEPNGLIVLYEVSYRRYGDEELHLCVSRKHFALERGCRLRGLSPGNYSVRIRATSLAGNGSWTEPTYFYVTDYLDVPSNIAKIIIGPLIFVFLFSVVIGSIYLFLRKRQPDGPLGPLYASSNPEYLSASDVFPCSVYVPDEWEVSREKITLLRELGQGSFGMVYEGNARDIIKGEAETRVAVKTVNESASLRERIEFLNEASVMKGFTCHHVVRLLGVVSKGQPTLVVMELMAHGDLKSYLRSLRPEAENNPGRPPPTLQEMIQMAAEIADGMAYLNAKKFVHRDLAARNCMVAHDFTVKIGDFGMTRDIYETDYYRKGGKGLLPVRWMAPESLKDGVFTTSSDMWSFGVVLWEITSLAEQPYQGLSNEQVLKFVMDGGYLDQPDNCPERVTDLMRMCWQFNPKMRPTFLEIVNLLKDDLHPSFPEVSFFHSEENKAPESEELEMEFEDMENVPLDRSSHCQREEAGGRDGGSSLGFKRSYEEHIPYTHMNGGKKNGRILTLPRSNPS
Test [4] concerns the target Serine/threonine-protein kinase 26 (Homo sapiens, UniProt Q9P289).
Test [5] addresses Ephrin type-A receptor 2 (Homo sapiens, UniProt P29317).
Test [6] deals with T2, NUAK family SNF1-like kinase 2 (Homo sapiens, UniProt Q9H093).
T2 sequence (Q9H093 whole entry): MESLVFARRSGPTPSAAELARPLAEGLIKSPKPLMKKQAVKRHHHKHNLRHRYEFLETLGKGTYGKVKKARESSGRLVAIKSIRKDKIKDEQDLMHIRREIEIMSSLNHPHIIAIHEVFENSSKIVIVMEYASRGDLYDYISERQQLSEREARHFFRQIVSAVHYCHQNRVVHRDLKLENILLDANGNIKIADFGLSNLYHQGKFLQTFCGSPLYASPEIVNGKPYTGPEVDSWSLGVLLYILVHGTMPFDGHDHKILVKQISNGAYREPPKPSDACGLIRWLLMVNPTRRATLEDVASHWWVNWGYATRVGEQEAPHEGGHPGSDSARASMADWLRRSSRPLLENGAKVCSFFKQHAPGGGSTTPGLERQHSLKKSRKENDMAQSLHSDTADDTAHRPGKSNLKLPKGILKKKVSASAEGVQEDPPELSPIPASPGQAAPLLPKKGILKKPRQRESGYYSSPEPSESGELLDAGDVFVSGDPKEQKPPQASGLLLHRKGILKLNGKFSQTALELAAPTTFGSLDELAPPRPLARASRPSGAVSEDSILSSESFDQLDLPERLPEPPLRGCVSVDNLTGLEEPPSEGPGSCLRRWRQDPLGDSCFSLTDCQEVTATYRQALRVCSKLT

The target in test [7] is T3, RNA cytidine acetyltransferase (Homo sapiens, UniProt Q9H0A0).
T3 sequence (Q9H0A0 whole entry): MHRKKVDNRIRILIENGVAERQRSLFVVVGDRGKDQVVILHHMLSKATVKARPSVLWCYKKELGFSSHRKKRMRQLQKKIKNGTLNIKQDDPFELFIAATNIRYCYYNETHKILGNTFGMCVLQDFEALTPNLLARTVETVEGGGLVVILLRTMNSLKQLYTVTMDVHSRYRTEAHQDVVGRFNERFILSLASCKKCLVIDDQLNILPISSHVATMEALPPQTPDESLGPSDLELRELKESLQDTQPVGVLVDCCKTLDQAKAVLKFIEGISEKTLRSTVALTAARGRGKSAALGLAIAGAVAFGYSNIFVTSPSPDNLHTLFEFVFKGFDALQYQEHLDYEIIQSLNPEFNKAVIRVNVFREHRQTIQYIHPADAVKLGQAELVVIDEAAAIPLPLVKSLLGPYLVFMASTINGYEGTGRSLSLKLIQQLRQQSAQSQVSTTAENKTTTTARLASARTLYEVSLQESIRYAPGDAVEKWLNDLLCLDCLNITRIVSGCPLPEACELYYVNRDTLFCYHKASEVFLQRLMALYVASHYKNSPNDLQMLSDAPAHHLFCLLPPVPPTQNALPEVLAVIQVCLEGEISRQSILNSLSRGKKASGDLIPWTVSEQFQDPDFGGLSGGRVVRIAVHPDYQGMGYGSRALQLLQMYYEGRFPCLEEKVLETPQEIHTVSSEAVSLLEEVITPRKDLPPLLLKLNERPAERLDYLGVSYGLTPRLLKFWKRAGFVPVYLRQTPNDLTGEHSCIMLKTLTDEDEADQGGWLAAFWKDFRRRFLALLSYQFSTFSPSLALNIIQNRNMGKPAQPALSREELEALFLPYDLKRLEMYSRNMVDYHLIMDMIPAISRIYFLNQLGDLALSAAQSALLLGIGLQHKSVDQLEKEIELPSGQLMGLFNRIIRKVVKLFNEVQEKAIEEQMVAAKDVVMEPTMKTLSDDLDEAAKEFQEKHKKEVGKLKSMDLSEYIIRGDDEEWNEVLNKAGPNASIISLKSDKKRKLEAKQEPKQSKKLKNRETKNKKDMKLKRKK

The target in test [8] is Chromodomain-helicase-DNA-binding protein 4 (Homo sapiens, UniProt Q14839).
Chain of Chromodomain-helicase-DNA-binding protein 4 (Q14839 whole entry): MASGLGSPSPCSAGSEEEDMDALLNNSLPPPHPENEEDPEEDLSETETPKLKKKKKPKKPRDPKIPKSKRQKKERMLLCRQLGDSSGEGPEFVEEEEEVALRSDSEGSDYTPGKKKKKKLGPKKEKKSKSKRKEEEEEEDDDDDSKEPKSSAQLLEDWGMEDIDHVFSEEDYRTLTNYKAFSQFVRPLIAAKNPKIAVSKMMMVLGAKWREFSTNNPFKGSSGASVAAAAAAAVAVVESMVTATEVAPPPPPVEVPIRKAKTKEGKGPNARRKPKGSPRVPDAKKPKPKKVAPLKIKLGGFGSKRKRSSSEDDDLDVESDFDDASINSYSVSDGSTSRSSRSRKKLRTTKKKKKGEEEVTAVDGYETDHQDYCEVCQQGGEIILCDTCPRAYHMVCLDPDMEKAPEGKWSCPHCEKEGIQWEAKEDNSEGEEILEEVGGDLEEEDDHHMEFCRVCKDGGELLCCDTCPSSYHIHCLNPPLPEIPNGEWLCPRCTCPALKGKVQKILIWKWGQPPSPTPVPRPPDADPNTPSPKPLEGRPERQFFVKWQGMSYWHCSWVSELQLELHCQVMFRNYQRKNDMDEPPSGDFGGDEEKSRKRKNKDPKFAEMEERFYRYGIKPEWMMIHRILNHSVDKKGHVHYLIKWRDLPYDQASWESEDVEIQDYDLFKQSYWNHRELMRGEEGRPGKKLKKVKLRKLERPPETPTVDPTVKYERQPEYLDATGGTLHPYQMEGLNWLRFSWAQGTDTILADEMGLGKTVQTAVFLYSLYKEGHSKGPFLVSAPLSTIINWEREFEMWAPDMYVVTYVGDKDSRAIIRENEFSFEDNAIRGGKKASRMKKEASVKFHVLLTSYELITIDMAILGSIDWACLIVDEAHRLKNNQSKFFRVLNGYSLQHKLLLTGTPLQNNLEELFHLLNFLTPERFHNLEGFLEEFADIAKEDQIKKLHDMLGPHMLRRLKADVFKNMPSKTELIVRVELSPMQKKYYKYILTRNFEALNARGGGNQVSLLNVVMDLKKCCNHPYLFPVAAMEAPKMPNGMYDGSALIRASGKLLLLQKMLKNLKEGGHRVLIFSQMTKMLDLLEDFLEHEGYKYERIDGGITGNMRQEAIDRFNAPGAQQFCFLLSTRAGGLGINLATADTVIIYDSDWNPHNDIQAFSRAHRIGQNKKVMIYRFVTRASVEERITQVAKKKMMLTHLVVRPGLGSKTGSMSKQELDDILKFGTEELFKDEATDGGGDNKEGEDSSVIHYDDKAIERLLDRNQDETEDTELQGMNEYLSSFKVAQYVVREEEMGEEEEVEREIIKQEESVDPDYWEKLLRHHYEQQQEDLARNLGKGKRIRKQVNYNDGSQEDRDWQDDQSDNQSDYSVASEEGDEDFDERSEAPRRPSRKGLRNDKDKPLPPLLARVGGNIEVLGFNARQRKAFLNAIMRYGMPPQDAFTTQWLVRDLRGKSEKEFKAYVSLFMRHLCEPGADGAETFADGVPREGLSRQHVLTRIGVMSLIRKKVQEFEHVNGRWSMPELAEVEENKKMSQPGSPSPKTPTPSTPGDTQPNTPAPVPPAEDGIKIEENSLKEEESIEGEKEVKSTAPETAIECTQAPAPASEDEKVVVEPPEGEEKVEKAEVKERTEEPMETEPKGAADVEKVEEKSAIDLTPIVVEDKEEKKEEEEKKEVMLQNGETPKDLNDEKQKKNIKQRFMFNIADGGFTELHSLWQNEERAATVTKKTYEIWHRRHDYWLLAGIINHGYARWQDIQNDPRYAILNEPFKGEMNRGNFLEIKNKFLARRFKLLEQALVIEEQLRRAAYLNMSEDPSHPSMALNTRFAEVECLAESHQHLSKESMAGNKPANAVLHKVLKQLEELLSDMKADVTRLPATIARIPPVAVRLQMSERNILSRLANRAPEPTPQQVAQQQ
Test [9] concerns the target MAP/microtubule affinity-regulating kinase 3 (Homo sapiens, UniProt P27448).
For test [10], the target named is Ephrin type-A receptor 7 (Homo sapiens, UniProt Q15375).

This is an account of results in ChEMBL document CHEMBL3991601, “The target landscape of clinical kinase drugs” (Science, 2017).

The source made the active and inactive calls. Rule as the data show it, for most assays here: actives have a measured Kd and inactives only a lower limit.
Also: in the data inactive means no Kd found up to 30 µM.

Chain of Dual specificity mitogen-activated protein kinase kinase 2 (P36507 whole entry): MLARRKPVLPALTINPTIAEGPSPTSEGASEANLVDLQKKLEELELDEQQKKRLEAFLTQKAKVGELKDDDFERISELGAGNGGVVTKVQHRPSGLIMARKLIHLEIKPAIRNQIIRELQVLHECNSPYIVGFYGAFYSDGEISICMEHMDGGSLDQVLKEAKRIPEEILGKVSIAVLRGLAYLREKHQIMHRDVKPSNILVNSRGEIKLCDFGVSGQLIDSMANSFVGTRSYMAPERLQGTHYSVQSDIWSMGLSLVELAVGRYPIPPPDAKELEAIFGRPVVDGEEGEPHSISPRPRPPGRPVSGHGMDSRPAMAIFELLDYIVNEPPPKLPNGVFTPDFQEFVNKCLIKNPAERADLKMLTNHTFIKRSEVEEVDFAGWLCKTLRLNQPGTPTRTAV
Chain of Serine/threonine-protein kinase 26 (Q9P289 whole entry): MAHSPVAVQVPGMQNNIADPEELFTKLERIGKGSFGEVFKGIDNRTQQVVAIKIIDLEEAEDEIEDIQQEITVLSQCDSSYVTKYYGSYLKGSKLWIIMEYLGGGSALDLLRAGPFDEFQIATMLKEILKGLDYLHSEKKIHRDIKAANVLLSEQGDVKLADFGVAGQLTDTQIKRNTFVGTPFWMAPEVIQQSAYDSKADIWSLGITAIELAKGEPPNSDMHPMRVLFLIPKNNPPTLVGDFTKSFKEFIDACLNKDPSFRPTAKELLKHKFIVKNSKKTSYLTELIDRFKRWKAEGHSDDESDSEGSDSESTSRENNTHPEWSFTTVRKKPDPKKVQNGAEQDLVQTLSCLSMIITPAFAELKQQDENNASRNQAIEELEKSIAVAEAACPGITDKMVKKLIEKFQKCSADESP
Chain of MAP/microtubule affinity-regulating kinase 3 (P27448 whole entry): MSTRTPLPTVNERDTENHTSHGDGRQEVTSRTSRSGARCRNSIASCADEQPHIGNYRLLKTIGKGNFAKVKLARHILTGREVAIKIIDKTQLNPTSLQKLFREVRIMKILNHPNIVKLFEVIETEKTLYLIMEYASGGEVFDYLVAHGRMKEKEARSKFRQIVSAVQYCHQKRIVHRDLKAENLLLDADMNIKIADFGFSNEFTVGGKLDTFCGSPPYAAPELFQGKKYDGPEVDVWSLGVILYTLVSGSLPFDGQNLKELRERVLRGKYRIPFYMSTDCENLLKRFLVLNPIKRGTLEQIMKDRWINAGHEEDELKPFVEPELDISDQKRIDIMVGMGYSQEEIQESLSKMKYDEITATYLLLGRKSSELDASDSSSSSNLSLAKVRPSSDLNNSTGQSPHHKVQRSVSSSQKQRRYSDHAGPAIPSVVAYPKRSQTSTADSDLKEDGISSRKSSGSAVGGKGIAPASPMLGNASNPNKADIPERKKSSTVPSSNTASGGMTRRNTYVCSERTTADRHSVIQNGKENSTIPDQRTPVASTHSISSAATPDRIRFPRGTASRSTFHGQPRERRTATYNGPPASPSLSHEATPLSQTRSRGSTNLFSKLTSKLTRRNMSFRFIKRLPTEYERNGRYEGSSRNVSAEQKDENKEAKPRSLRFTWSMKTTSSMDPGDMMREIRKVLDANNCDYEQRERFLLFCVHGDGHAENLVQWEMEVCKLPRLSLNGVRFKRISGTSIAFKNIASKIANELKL

For `C[C@H]1CNCCCN1S(=O)(=O)c1cccc2cncc(F)c12`, the Kd in test [1], in test [2], in test [3], in test [4], in [5] and in [6] was > 30 µM (inactive) each time. Also, the Kd in [7] was > 30 µM (inactive); in [8], > 30 µM (inactive); in [9], 58.2 µM (active).
As to `CCNC(=O)C#Cc1ccc2c(c1)NC(=O)/C2=C(\Nc1ccc(CN(C)C)cc1)c1ccccc1`, the Kd in test [10], in test [2], in test [3], in test [4], in test [5] and in test [7] was > 30 µM (inactive) throughout. In addition, the Kd in test [8] and in test [9] was > 30 µM (inactive) in each case.
Take `C#Cc1cccc(Nc2ncnc3cc(OC)c(OCCCCCCC(=O)NO)cc23)c1` [CUDC-101]: the Kd in [1], in test [2], in test [3], in [4], in test [5] and in test [6] was > 30 µM (inactive) each time. Also, the Kd in [7], in test [8] and in test [9] was > 30 µM (inactive) throughout.
Turning to `CC(C)(C)c1nc(-c2cccc(NS(=O)(=O)c3c(F)cccc3F)c2F)c(-c2ccnc(N)n2)s1` [DABRAFENIB], the Kd in test [10], in test [3], in test [4], in test [5], in test [6] and in test [7] was > 30 µM (inactive) throughout. For the same compound, the Kd in [8] and in [9] was > 30 µM (inactive) in each case.
As for `Cc1nc2cc(-n3ncc(C(=O)c4cc5ccccc5[nH]4)c3N)ccc2[nH]1` [FGFR INHIBITOR DEBIO 1347], the Kd in test [1], in test [2], in test [3], in test [4], in test [5] and in [6] was > 30 µM (inactive) each time. Moreover, the Kd in [7], in test [8] and in [9] was > 30 µM (inactive) each time.
In the case of `CNC(=O)c1nn(C)c2c1C(C)(C)Cc1cnc(Nc3ccc(N4CCN(C)CC4)cc3)nc1-2` [MILCICLIB], the Kd in test [1] was > 30 µM (inactive); in [10], > 30 µM (inactive); in [3] it was > 30 µM (inactive); in [4], > 30 µM (inactive); in test [5], 0.661 µM (active); in test [6], > 30 µM (inactive). The Kd in test [7] was > 30 µM (inactive); in test [9], 3.44 µM (active).
As for `CNC(=O)c1cc(Oc2ccc(NC(=O)Nc3cc(C(C)(C)C)nn3-c3ccc4ncccc4c3)c(F)c2)ccn1` [REBASTINIB], the Kd in test [1], in test [2], in test [3], in [4], in test [5] and in test [6] was > 30 µM (inactive) in each case. Also, the Kd in [7], in [8] and in test [9] was > 30 µM (inactive) in each case.
Regarding `CO[C@H]1C[C@@H]2CC[C@@H](C)[C@@](O)(O2)C(=O)C(=O)N2CCCC[C@H]2C(=O)O[C@H]([C@H](C)C[C@@H]2CC[C@@H](OP(C)(C)=O)[C@H](OC)C2)CC(=O)[C@H](C)/C=C(\C)[C@@H](O)[C@@H](OC)C(=O)[C@H](C)C[C@H](C)/C=C/C=C/C=C/1C` [RIDAFOROLIMUS], the Kd in test [1], in test [2], in test [3], in test [4], in test [5] and in [6] was > 30 µM (inactive) each time. The Kd in test [7], in test [8] and in test [9] was > 30 µM (inactive) in each case.
For `CO[C@H]1C[C@@H]2CC[C@@H](C)[C@@](O)(O2)C(=O)C(=O)N2CCCC[C@H]2C(=O)O[C@H]([C@H](C)C[C@@H]2CC[C@@H](O)[C@H](OC)C2)CC(=O)[C@H](C)/C=C(\C)[C@@H](O)[C@@H](OC)C(=O)[C@H](C)C[C@H](C)/C=C/C=C/C=C/1C` [SIROLIMUS], the Kd in test [1], in test [2], in test [3], in test [4], in test [5] and in [7] was > 30 µM (inactive) throughout. Further, the Kd in [8] and in test [9] was > 30 µM (inactive) each time.
On to `O=C1NC(=O)[C@@H](c2cn3c4c(cccc24)CCC3)[C@@H]1c1c[nH]c2ccccc12` [TIVANTINIB], for which the Kd in test [1], in [2], in test [3], in [4], in test [5] and in [7] was > 30 µM (inactive) each time. Moreover, the Kd in test [8] and in test [9] was > 30 µM (inactive) throughout.
